Reference: patent US20130266557A1, “METHODS FOR TREATMENT OF A SARCOMA USING AN EPIMETABOLIC SHIFTER (COENZYME Q10)” (priority 2009, published 2013)
Where two headings read alike, the source gives them in different places.

Legend:
[1] = Level and form of CoQ10 in mitochondrial enriched preparations; type: cell-based
Description: Experiments were carried out to confirm the entry of CoQ10 into cells and to determine the level and form of CoQ10 present in the cells. In particular, the level of Coenzyme Q10, as well as the form of CoQ10 (i.e., oxidized or reduced), present in the mitochondria was determined by analyzing mitochondrial enriched preparations from cells treated with CoQ10. […] In addition, changes in levels of proteins from mitochondria enriched samples were analyzed by using 2-D gel electrophoresis and protein identification by mass spectrometry characterization.

[2] = cited from earlier work
NCIES0808 cells = assay: Real-time PCR, Human Diabetes Arrays; type: cell-based
Description: (§1) NCIES0808 cells were plated in T25 flasks at a density of 2×10^6 cells per flask in media or media containing 50 uM/100 uM Q10. All treatment groups were run in triplicate. Cells were harvested at 0, 3, 6, 24 or 48 hours. Pictures were taken to examine cell morphology before harvesting. To harvest cells, media was removed but saved to be able to collect floating apoptotic cells. Cells were trypsinized with 1 ml of trypsin-EDTA and the enzyme action was stopped by addition of 4 ml complete media. Trypsinized cells were added to the appropriate tube containing the media with dead cells. Cells were centrifuged at 1200 rpm for 5 minutes and media was aspirated leaving behind the cell pellet for RNA extraction. RNA isolation from cell pellets was carried out with the RNeasy kit (Qiagen, Valencia Calif.) according to the manufacturer's instructions. RNA samples were eluted from spin columns in water; absorbance was measured at 260 nm, 230 nm and 280 nm. The purity of RNA was evaluated by the 260/230 and 280/230 ratios. The concentration of RNA in all of the samples was calculated from absorbance values at […]. First strand cDNA was synthesized from 0.5 ug of all RNA samples using instructions provided with the First strand kit (SABiosciences, Frederick, Md.). The synthesized first strand from a sample was dispensed equally in a PCR array plate containing primers within a pathway (Angiogenesis, Diabetes and Mitochondria) (SABiosciences Corporation, Frederick, Md.). The arrays were amplified with real time PCR using the SYBR green detection methods using manufacturer approved protocols. The ct values from each of the samples were normalized to three housekeeping genes and fold regulation of Q10 treated groups was compared to time matched controls from cells grown in regular media was calculated.
The experiments described in this example were performed to test the overall hypothesis that Q10 would have an impact on expression of multiple genes in Ewing's sarcoma cells. The mRNA from NCIES0808 cells treated with 50 μM or 100 μM Q10 for various times was evaluated by RT-PCR against a panel of target proteins involved in human diabetes, human angiogenesis or human mitochondrial pathways.
Ct values obtained from a real time thermocycler were loaded onto the analysis tool on the SABiosciences website for calculation of fold regulation compared to cells with media. The genes that are included in the tables below are those that show a p value of close to 0.05.

cancer = conditions: Mazzio 2006; cited from earlier work
skin cancer cells = conditions: culture of skin cancer cells but not normal cells; cited from earlier work
[3] = test system: keratinocytes and dermal fibroblasts; assay: Proliferation and migration of normal cells; type: cell-based; conditions: including keratinocytes and dermal fibroblasts
Description: Moreover, a surprising divergent effect was observed on normal cells as compared to oncogenic cells.

NCI-ES-0808 cells = assay: Cell morphology by microscopy; type: cell-based, human
Description: as §1, with “RNA isolation from cell pellets was carried out with the RNeasy kit (Qiagen, Valencia Calif.) according to the manufacturer's instructions.” left out, “First strand cDNA was synthesized from 0.5 ug of all RNA samples using instructions provided with the First strand kit (SABiosciences, Frederick, Md.). The synthesized first strand from a sample was dispensed equally in a PCR array plate containing primers within a pathway (Angiogenesis, Diabetes and Mitochondria) (SABiosciences Corporation, Frederick, Md.). The arrays were amplified with real time PCR using the SYBR green detection methods using manufacturer approved protocols.” left out
The morphology of NCI-ES-0808 cells was monitored following treatment with CoQ10. […]

mitochondrial complex II = mitochondrial complex II (Homo sapiens, UniProt O14521+P21912+Q99643); conditions: cancer cells; Mazzio and Soliman 2004; cited from earlier work
mitochondrial complex II, sequence (P31040 43-664 partner): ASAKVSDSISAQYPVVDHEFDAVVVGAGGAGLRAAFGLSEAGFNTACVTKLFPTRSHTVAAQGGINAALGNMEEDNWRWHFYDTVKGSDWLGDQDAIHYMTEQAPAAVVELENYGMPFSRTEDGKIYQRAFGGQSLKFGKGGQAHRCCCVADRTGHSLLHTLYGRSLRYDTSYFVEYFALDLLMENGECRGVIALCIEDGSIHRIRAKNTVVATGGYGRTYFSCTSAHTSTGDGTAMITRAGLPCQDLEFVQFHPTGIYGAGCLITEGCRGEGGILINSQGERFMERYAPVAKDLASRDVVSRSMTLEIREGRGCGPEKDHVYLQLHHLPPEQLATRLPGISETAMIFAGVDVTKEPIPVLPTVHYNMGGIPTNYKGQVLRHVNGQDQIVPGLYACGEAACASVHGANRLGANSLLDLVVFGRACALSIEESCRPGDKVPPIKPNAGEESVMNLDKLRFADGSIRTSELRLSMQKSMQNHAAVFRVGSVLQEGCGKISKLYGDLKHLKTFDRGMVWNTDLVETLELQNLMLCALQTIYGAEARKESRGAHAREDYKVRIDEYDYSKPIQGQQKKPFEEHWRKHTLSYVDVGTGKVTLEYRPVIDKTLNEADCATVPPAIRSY
mitochondrial complex II, sequence (P21912 29-280): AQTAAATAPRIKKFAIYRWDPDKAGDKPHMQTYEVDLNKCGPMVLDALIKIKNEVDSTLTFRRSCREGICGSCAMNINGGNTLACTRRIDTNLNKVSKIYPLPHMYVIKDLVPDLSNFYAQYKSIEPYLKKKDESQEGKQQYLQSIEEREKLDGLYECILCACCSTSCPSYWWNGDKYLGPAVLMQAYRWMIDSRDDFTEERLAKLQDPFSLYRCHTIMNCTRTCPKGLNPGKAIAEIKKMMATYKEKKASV
mitochondrial complex II, sequence (Q99643 30-169): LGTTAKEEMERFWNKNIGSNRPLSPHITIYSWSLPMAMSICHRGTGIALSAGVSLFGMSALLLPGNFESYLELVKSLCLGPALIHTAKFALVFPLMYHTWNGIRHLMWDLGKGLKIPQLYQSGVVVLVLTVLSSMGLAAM
mitochondrial complex II, sequence (O14521 57-159): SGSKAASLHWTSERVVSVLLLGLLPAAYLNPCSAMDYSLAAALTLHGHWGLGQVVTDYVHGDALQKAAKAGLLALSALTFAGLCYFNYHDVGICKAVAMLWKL

Coenzyme Q10 [CoQ10]
Level of Coenzyme Q10 present in the mitochondria ([1]; addition of exogenous Q10): increase in a time and dose dependent manner | Form of CoQ10 present in the mitochondria ([1]; mitochondrial enriched preparations from treated cells): primarily in oxidized form | Share of CoQ10 in the reduced form ([2]; blood (plasma)): ~96% | Share of CoQ10 in the reduced form ([2]; heart): about 61% | Share of CoQ10 in the reduced form ([2]; intenstine): ~95% | Share of CoQ10 in the reduced form ([2]; kidney): ~75% | Share of CoQ10 in the reduced form ([2]; liver): ~95% | Share of CoQ10 in the reduced form ([2]; muscle): ~65% | Pattern of regulation, FOXP3 mRNA (NCIES0808 cells; 6 hours, 50 uM Q10): Upregulation at 6 hours with 50 uM and 100 uM Q10. | Pattern of regulation, FOXP3 mRNA (NCIES0808 cells; 6 hours, 100 uM Q10): Upregulation at 6 hours with 50 uM and 100 uM Q10. | Pattern of regulation, GCGR mRNA (NCIES0808 cells; 6 hours, 100 uM Q10): Upregulation at 6 hours with 100 uM Q10. | Pattern of regulation, GPD1 mRNA (NCIES0808 cells; 6 hours, 100 uM Q10): Upregulation at 6 hours with 100 uM Q10. | Pattern of regulation, INPPL1 mRNA (NCIES0808 cells; 6 hours, 100 uM Q10): Upregulation at 6 hours with 100 uM Q10. | Pattern of regulation, IRS2 mRNA (NCIES0808 cells; 6 hours, 100 uM Q10): Upregulation at 6 hours with 100 uM Q10. | Pattern of regulation, ADRB mRNA (NCIES0808 cells; 24 hours, 100 uM Q10): Upregulation at 24 hours with 100 uM Q10. | Pattern of regulation, DUSP4 mRNA (NCIES0808 cells; 24 hours, 100 uM Q10): Upregulation at 24 hours with 100 uM Q10. | Pattern of regulation, FOX C2 mRNA (NCIES0808 cells; 24 hours, 100 uM Q10): Upregulation at 24 hours with 100 uM Q10 | Pattern of regulation, HMOX1 mRNA (NCIES0808 cells; 24 hours, 100 uM Q10): Upregulation at 24 and 48 hours with 100 uM Q10. | Pattern of regulation, VEGFA mRNA (NCIES0808 cells; 24 hours, 100 uM Q10): Upregulation at 24 hours with 100 uM Q10 and 48 hours | Pattern of regulation, VEGFA mRNA (NCIES0808 cells; 48 hours, 50 uM Q10): Upregulation at 24 hours with 100 uM Q10 and 48 hours | Pattern of regulation, CEACAM1 mRNA (NCIES0808 cells; 48 hours, 100 uM Q10): Upregulation at 48 hours with 100 uM Q10. | Pattern of regulation, HMOX1 mRNA (NCIES0808 cells; 48 hours, 100 uM Q10): Upregulation at 24 and 48 hours with 100 uM Q10. | Pattern of regulation, IL4R mRNA (NCIES0808 cells; 48 hours, 100 uM Q10): Upregulation at 48 hours with 100 uM Q10. | Lethality against cancer (cancer): did not find CoQ10 to be as lethal as expected | Rate of apoptosis (skin cancer cells): increase the rate of apoptosis | Effect on normal cells [3]: increased proliferation and migration | Differences in cell number or morphology (FIG. 1 legend) (NCI-ES-0808 cells; 3, 6, 24, 48 hours, 50 uM and 100 uM Q10): no distinct differences in either cell number or morphology | Differences in morphology, apoptotic cells or cell number by microscopy (NCI-ES-0808 cells; among treatment groups, 3 hrs and 6 hrs post treatment (FIG. 1)): No differences in morphology, number of visually ascertainable apoptotic cells or cell number | Effect on Vmax of mitochondrial complex II activity (mitochondrial complex II): increase the Vmax of mitochondrial complex II activity
